In publication PMC8371902, “Phase 1 study of M2698, a p70S6K/AKT dual inhibitor, in patients with advanced cancer” (Journal of Hematology & Oncology, 2021):
Entries after “also recorded” stand apart in the source; their conditions may differ.

Tested on: patients with advanced metastatic cancer
Description: In this phase 1 study, dose escalation was followed by expansion cohorts of once-daily, oral M2698 in continuous 21-day cycles. Primary objectives were to determine the maximum tolerated dose (MTD), dose-limiting toxicities (DLTs), and recommended phase 2 dose (RP2D). Secondary objectives were to assess safety and tolerability, pharmacokinetics (PK, including food effect) and antitumor activity. Pharmacodynamic biomarker assessments were exploratory. Treatment was discontinued if there was disease progression, toxicity or consent withdrawal.
In Part 1, M2698 monotherapy was investigated in a dose escalation with a food effect cohort. In Part 2, M2698 was investigated as monotherapy (expansion cohort) to further characterize safety, tolerability and pharmacokinetics, and assess antitumor activity in PAM + patients without confounding markers (exploratory).
Dose escalation analysis included all patients who experienced a DLT and those who received ≥ 80% of planned M2698 doses in cycle 1 without experiencing a DLT. Safety analysis included all patients who received ≥ 1 dose of M2698. PK analysis included all patients who received ≥ 1 dose of M2698 and had measurable plasma concentrations. Dose proportionality was tested using the power model (linear regression approach on the log -transformed scale).

NC(=O)c1cccc2c(N[C@H](CN3CCC3)c3ccc(Cl)c(C(F)(F)F)c3)ncnc12 [M2698]
M2698-related TEAE: Vomiting (Overall N=62): 2 (3.2) n (%)
M2698-related TEAE: White blood cell count decreased (Overall N=62): 1 (1.6) n (%)
Maximum tolerated dose (MTD) of M2698 (daily): no formal MTD was determined; also recorded: no MTD was reached
Number of DLTs observed (dose escalation): two
Grade >3 TEAE: GGT increased (in vivo): 4.8%
Grade >3 TEAE: abdominal pain (in vivo): 3.2%
Grade >3 TEAE: acute kidney injury (in vivo): 4.8%
Grade >3 TEAE: acute respiratory failure (in vivo): 3.2%
Grade >3 TEAE: anemia (in vivo): 9.7%
Grade >3 TEAE: blood AP increased (in vivo): 3.2%
Grade >3 TEAE: blood creatine phosphokinase increased (in vivo): 3.2%
Grade >3 TEAE: cardiac arrest (in vivo): 3.2%
Grade >3 TEAE: constipation (in vivo): 3.2%
Grade >3 TEAE: disease progression (in vivo): 3.2%
Grade >3 TEAE: hypertension (in vivo): 3.2%
Grade >3 TEAE: hyponatremia (in vivo): 6.5%
Grade >3 TEAE: nausea (in vivo): 3.2%
Grade >3 TEAE: pleural effusion (in vivo): 3.2%
Grade >3 TEAE: pneumonia (in vivo): 4.8%
Grade >3 TEAE: septic shock (in vivo): 3.2%
Grade >3 TEAE: small intestinal obstruction (in vivo): 3.2%
Grade >3 TEAE: urinary tract infection (in vivo): 4.8%
Grade >3 TEAE: vomiting (in vivo): 4.8%
M2698-related TEAE abnormal dreams (in vivo): 9.7%
M2698-related TEAE diarrhea (in vivo): 11.3%
M2698-related TEAE fatigue (in vivo): 6.5%
M2698-related TEAE nausea (in vivo): 19.4%
M2698-related TEAE tremor (in vivo): 6.5%
M2698-related TEAE: Abnormal dreams (in vivo): 6 (9.7) number of patients (percent)
M2698-related TEAE: Diarrhea (in vivo): 7 (11.3) number of patients (percent)
M2698-related TEAE: Fatigue (in vivo): 4 (6.5) number of patients (percent)
M2698-related TEAE: Nausea (in vivo): 12 (19.4) number of patients (percent)
M2698-related TEAE: Tremor (in vivo): 4 (6.5) number of patients (percent)
M2698-related TEAEs: patients with ≥1 event (in vivo): 34 (54.8) number of patients (percent)
Patients with M2698-related TEAEs (in vivo): 54.8%
Patients with M2698-related TEAEs grade ≥ 3 (in vivo): 12.9%
Serious TEAE related to M2698 (in vivo): 5 (8.1) number of patients (percent)
Serious TEAEs (in vivo): 26 (41.9) number of patients (percent)
Serious TEAEs attributed to M2698 (in vivo): 8.1 % of patients
TEAE leading to permanent discontinuation of any trial treatment (in vivo): 6 (9.7%) number of patients (percent)
TEAE leading to temporary discontinuation of M2698 (in vivo): 29 (46.8%) number of patients (percent)
TEAE related to M2698 (in vivo): 34 (54.8%) number of patients (percent)
TEAE related to M2698, grade ≥ 3 (in vivo): 8 (12.9%) number of patients (percent)
TEAE: ALT increased (in vivo): 4 (6.5) n (%)
TEAE: AST increased (in vivo): 2 (3.2) n (%)
TEAE: Abdominal pain (in vivo): 5 (8.1) n (%)
TEAE: Abnormal dreams (in vivo): 6 (9.7) n (%)
TEAE: Anemia (in vivo): 13 (21.0) n (%)
TEAE: Anxiety (in vivo): 6 (9.7) n (%)
TEAE: Arthralgia (in vivo): 1 (1.6) n (%)
TEAE: Asthenia (in vivo): 2 (3.2) n (%)
TEAE: Back pain (in vivo): 2 (3.2) n (%)
TEAE: Blood AP increased (in vivo): 4 (6.5) n (%)
TEAE: Blood bilirubin increased (in vivo): 2 (3.2) n (%)
TEAE: Blood creatinine increased (in vivo): 7 (11.3) n (%)
TEAE: Chills (in vivo): 2 (3.2) n (%)
TEAE: Constipation (in vivo): 14 (22.6) n (%)
TEAE: Cough (in vivo): 11 (17.7) n (%)
TEAE: Decreased appetite (in vivo): 9 (14.5) n (%)
TEAE: Dehydration (in vivo): 7 (11.3) n (%)
TEAE: Depression (in vivo): 3 (4.8) n (%)
TEAE: Diarrhea (in vivo): 17 (27.4) n (%)
TEAE: Disease progression (in vivo): 2 (3.2) n (%)
TEAE: Dizziness (in vivo): 9 (14.5) n (%)
TEAE: Dry mouth (in vivo): 3 (4.8) n (%)
TEAE: Dry skin (in vivo): 0 (0) n (%)
TEAE: Dyspnea (in vivo): 4 (6.5) n (%)
TEAE: Edema peripheral (in vivo): 1 (1.6) n (%)
TEAE: Fatigue (in vivo): 21 (33.9) n (%)
TEAE: GGT increased (in vivo): 7 (11.3) n (%)
TEAE: Gait disturbance (in vivo): 2 (3.2) n (%)
TEAE: Headache (in vivo): 3 (4.8) n (%)
TEAE: Hyperglycemia (in vivo): 1 (1.6) n (%)
TEAE: Hypertension (in vivo): 4 (6.5) n (%)
TEAE: Hypoalbuminemia (in vivo): 5 (8.1) n (%)
TEAE: Hypocalcemia (in vivo): 4 (6.5) n (%)
TEAE: Hypokalemia (in vivo): 4 (6.5) n (%)
TEAE: Hypomagnesemia (in vivo): 2 (3.2) n (%)
TEAE: Hyponatremia (in vivo): 5 (8.1) n (%)
TEAE: Insomnia (in vivo): 2 (3.2) n (%)
TEAE: Muscle spasms (in vivo): 0 (0) n (%)
TEAE: Muscular weakness (in vivo): 1 (1.6) n (%)
TEAE: Nasopharyngitis (in vivo): 1 (1.6) n (%)
TEAE: Nausea (in vivo): 23 (37.1) n (%)
TEAE: Neutropenia (in vivo): 1 (1.6) n (%)
TEAE: Pain in extremity (in vivo): 3 (4.8) n (%)
TEAE: Pyrexia (in vivo): 11 (17.7) n (%)
TEAE: Rash (in vivo): 1 (1.6) n (%)
TEAE: Tremor (in vivo): 5 (8.1) n (%)
TEAE: Urinary tract infection (in vivo): 5 (8.1) n (%)
TEAE: Vision blurred (in vivo): 3 (4.8) n (%)
TEAE: Vomiting (in vivo): 12 (19.4) n (%)
TEAE: Weight decrease (in vivo): 4 (6.5) n (%)
TEAEs (in vivo): 61 (98.4%) number of patients (percent)
TEAEs, grade ≥ 3 (in vivo): 36 (58.1%) number of patients (percent)
TEAE leading to death (no deaths considered related to M2698, trastuzumab or tamoxifen): 6 (9.7) number of patients (percent)
Recommended phase 2 dose (RP2D) of M2698 (once daily (QD)): 240 mg
Psychiatric event attributed to M2698 (one patient, 320 mg, cycle 2): grade 3 psychosis
Grade 2–3 gastrointestinal adverse events requiring dose reduction (patients with prolonged exposure to M2698 ≥ 320 mg): 19.4%
